Assay results taken from paper PMC8500670, “A selective WDR5 degrader inhibits acute myeloid leukemia in patient-derived mouse models” (Science translational medicine, 2021).

Key:
NSD2 = molecular target: T1, NSD2 (Homo sapiens, UniProt O96028); experiment: biochemical; design: protein methyltransferase inhibition panel, single concentration, duplicate
T1 sequence (O96028 1-1365): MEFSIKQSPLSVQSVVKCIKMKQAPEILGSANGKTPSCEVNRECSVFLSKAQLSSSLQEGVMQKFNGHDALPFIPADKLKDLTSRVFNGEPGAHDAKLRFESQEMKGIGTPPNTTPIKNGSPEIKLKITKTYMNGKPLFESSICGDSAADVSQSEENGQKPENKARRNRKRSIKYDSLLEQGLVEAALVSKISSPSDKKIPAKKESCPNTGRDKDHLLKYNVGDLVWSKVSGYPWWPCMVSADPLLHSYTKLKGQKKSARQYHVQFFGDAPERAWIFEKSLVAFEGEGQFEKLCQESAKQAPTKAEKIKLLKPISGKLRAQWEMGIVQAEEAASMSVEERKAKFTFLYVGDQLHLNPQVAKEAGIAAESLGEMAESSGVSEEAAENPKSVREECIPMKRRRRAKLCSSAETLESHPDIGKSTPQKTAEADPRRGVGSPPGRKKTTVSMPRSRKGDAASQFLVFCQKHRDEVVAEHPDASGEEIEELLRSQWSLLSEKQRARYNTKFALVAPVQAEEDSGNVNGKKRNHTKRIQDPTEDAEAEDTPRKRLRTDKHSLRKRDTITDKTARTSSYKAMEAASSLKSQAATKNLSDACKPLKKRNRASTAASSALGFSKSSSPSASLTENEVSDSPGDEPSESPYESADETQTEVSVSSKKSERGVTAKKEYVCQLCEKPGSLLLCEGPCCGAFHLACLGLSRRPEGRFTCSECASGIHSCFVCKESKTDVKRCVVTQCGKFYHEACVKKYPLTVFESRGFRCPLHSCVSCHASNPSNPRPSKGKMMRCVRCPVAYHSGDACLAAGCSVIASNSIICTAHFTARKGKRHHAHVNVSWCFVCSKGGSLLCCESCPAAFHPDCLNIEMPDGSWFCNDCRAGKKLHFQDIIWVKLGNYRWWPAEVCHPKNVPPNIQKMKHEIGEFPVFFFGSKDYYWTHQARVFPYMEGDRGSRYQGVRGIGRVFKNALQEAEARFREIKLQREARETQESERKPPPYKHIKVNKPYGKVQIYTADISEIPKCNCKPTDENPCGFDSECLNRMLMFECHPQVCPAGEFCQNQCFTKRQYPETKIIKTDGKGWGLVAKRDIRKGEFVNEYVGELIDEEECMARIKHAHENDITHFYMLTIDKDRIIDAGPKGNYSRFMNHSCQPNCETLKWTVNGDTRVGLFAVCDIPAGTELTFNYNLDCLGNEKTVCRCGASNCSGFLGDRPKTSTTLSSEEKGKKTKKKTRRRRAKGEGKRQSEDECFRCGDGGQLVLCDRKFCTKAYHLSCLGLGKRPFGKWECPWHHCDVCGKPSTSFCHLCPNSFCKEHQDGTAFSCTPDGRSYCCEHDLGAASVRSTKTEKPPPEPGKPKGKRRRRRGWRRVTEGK
Description: (§1) We next assessed selectivity of MS67 against 22 protein methyltransferases (table S2) and a broad panel of common drug targets including 45 kinases (table S3) and 44 G protein–coupled receptors (GPCR), ion channels, and transporters (table S4). […] We subsequently determined that MS67 had moderate binding affinity (Ki = 1.0 ± 0.8 μM) to Sigma 2 receptor (fig. S10).

GLP = molecular target: T2, GLP (Homo sapiens, UniProt Q9H9B1); experiment: biochemical; design: protein methyltransferase inhibition panel, single concentration, duplicate
T2 construct: gene EHMT1
T2 sequence (Q9H9B1 1-1298): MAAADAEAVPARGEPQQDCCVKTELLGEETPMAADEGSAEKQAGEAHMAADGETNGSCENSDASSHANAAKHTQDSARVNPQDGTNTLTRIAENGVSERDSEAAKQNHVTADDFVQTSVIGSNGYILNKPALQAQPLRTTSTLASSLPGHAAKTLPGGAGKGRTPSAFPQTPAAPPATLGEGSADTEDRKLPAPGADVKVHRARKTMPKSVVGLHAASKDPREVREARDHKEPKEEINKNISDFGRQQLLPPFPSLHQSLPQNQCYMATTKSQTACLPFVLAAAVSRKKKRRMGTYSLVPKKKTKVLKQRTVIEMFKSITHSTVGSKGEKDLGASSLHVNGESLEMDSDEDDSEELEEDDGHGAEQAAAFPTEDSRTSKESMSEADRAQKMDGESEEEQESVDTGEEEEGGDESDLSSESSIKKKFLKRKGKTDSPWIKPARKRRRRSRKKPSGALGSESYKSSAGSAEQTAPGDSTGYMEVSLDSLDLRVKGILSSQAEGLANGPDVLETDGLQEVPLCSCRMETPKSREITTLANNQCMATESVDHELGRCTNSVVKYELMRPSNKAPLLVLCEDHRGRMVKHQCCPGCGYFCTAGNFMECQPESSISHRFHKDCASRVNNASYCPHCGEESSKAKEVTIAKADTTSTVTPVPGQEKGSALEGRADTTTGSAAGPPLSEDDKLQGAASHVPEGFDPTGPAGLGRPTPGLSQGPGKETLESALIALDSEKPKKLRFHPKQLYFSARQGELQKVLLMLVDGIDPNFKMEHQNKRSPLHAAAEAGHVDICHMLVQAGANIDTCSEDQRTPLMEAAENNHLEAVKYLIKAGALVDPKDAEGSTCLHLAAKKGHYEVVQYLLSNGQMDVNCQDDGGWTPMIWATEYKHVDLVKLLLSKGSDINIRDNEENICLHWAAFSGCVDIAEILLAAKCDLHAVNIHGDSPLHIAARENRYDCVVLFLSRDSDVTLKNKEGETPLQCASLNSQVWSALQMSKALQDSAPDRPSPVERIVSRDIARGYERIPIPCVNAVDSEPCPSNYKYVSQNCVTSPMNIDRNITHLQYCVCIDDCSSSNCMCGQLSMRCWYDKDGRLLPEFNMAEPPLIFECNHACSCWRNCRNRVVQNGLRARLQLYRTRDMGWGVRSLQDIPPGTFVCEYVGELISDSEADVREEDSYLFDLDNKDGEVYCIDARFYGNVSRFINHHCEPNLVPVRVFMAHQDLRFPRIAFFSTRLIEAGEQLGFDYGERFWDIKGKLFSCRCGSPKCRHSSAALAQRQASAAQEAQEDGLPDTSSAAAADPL
Description: as §1

## Cc1ncsc1-c1ccc([C@H](C)NC(=O)[C@@H]2C[C@@H](O)CN2C(=O)[C@@H](NC(=O)CNC(=O)c2ccc(F)c(-c3ccc(N4C[C@@H](C)N(C)[C@@H](C)C4)c(NC(=O)c4c[nH]c(=O)cc4C(F)(F)F)c3)c2)C(C)(C)C)cc1 [MS67]
NSD2
  inhibition at 10 µM: < 10%
GLP
  inhibition at 10 µM: < 10%
